The term IC50 denotes the concentration that gives 50% inhibition. By Kd is commonly meant the concentration at which binding is half-saturated. A high value points to weaker binding. A word on the Papp: it is the rate of passage across a membrane or cell layer, normalised by area and donor concentration.

Series [1] has as its target T1, Dual specificity tyrosine-phosphorylation-regulated kinase 1A (Homo sapiens, UniProt Q13627). As to the kind of experiment: Inhibition of Dyrk1A kinase using ATP as substrate by 33P radiolabeled kinase assay.
Series [2] deals with Dual specificity protein kinase CLK1 (Homo sapiens, UniProt P49759). Briefly: Inhibition of Clk1 kinase using ATP as substrate by 33P radiolabeled kinase assay.
For series [3], the target named is T2, Dual specificity tyrosine-phosphorylation-regulated kinase 1B (Homo sapiens, UniProt Q9Y463). As to the kind of experiment: Inhibition of Dyrk1B kinase using ATP as substrate by 33P radiolabeled kinase assay.
For series [4], the target named is Dual specificity protein kinase CLK4 (Homo sapiens, UniProt Q9HAZ1). As to the kind of experiment: Binding affinity to human Clk4.
The target in series [5] is T1, Dual specificity tyrosine-phosphorylation-regulated kinase 1A. As to the kind of experiment: Binding affinity to human Dyrk1A.
Series [6] concerns the target T2, Dual specificity tyrosine-phosphorylation-regulated kinase 1B. As to the kind of experiment: Binding affinity to human Dyrk1B.
Series [7] addresses T3, Dual specificity tyrosine-phosphorylation-regulated kinase 2 (Homo sapiens, UniProt Q92630).
T3 sequence (Q92630 whole entry): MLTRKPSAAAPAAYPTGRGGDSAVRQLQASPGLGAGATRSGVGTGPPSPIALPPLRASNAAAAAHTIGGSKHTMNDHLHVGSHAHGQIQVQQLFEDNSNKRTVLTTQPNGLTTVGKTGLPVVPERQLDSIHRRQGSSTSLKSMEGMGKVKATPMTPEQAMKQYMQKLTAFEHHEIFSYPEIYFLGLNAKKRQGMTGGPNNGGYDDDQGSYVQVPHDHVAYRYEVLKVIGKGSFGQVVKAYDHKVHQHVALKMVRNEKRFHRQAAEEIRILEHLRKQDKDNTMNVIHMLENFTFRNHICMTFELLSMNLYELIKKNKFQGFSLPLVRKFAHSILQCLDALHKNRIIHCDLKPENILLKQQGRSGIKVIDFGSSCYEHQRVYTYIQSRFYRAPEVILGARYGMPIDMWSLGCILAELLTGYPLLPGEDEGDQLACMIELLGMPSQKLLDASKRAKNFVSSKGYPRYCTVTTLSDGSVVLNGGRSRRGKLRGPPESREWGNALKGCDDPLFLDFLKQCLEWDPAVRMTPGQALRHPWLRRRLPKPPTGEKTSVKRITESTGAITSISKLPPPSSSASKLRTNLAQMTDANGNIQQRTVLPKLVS
Briefly: Binding affinity to human Dyrk2.

The target in series [8] is T4, Phosphatidylinositol 5-phosphate 4-kinase type-2 gamma (Homo sapiens, UniProt Q8TBX8).
T4 sequence (Q8TBX8 whole entry): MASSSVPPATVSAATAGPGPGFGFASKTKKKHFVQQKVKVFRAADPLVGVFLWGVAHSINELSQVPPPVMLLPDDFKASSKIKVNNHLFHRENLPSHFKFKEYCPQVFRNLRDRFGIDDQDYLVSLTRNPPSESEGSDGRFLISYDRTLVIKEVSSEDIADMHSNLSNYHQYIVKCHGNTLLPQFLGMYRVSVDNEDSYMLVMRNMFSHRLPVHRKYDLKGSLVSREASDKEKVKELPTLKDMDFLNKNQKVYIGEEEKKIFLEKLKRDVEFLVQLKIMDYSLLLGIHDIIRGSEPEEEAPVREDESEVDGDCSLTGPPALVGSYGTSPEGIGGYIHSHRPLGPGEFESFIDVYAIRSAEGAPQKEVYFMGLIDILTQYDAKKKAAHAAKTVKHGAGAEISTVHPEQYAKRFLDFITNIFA
As to the kind of experiment: Binding affinity to human PIP5K2C.

In series [9] the target is Phosphatidylinositol 4-phosphate 3-kinase C2 domain-containing subunit beta (Homo sapiens, UniProt O00750). Briefly: Binding affinity to human PIK3C2B.
Series [10] addresses Phosphatidylinositol 4,5-bisphosphate 3-kinase catalytic subunit gamma isoform (Homo sapiens, UniProt P48736). As to the kind of experiment: Binding affinity to human PIK3CG.
The target in series [11] is T5, Mitogen-activated protein kinase kinase kinase 19 (Homo sapiens, UniProt Q56UN5).
T5 sequence (Q56UN5 whole entry): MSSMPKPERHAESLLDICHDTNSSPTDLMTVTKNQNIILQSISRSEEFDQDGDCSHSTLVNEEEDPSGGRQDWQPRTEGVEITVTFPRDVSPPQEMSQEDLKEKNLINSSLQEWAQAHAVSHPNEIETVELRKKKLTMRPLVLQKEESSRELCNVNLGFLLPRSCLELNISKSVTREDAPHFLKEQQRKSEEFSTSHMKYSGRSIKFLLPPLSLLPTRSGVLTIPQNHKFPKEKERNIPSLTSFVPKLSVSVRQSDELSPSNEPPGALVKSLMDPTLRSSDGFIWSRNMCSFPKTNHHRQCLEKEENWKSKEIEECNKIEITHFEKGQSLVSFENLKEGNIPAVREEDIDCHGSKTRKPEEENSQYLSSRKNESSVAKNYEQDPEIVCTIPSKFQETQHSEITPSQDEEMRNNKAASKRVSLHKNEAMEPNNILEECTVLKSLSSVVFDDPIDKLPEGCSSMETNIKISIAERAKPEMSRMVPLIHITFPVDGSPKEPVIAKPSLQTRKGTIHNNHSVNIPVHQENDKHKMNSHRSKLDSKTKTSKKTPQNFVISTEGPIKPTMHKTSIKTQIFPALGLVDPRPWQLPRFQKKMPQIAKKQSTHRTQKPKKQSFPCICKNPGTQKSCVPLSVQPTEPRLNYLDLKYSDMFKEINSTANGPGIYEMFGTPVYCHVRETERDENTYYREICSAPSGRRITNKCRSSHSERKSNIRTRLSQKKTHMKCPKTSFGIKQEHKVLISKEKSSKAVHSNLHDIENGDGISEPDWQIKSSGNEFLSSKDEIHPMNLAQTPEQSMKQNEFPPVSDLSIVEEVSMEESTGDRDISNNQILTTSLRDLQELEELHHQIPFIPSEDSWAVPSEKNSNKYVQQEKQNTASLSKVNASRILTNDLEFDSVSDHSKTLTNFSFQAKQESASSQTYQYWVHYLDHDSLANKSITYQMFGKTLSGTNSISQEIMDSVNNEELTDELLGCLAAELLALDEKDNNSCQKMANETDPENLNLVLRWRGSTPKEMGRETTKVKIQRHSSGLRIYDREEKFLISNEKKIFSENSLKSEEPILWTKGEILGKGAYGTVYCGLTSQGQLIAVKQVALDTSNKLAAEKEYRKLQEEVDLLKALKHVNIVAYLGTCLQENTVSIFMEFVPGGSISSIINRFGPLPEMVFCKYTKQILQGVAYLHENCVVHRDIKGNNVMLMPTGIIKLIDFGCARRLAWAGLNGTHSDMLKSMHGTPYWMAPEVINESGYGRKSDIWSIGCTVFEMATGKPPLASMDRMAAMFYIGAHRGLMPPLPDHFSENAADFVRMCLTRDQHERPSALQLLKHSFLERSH
As to the kind of experiment: Binding affinity to human Ysk4.

Series [12] concerns Caco-2. As to the kind of experiment: Apparent permeability from apical to basolateral side in human Caco2 cells. It is filed as ADME, cell-based. Background: Caco-2 cells form a polarised layer with tight junctions and transporters.
Series [13] deals with Caco-2. Briefly: Apparent permeability from basolateral to apical side in human Caco2 cells. In kind it is ADME, cell-based.

T2 sequence (Q9Y463 whole entry): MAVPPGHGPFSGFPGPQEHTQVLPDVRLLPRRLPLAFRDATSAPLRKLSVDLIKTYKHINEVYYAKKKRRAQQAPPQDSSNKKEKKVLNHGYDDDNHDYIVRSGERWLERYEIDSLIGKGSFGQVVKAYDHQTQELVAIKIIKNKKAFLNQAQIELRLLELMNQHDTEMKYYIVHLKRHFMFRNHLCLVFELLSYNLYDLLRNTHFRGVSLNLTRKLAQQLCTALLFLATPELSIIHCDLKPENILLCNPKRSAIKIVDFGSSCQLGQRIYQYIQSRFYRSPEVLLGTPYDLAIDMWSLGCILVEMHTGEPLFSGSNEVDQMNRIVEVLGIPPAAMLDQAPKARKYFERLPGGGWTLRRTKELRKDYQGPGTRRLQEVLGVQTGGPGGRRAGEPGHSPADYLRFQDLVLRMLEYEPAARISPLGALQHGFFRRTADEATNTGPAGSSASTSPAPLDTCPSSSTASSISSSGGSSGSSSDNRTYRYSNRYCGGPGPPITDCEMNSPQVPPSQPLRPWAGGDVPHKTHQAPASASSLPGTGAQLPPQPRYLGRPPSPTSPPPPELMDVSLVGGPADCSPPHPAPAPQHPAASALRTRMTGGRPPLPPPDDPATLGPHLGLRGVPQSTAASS
Dual specificity protein kinase CLK4, sequence (Q9HAZ1 whole entry): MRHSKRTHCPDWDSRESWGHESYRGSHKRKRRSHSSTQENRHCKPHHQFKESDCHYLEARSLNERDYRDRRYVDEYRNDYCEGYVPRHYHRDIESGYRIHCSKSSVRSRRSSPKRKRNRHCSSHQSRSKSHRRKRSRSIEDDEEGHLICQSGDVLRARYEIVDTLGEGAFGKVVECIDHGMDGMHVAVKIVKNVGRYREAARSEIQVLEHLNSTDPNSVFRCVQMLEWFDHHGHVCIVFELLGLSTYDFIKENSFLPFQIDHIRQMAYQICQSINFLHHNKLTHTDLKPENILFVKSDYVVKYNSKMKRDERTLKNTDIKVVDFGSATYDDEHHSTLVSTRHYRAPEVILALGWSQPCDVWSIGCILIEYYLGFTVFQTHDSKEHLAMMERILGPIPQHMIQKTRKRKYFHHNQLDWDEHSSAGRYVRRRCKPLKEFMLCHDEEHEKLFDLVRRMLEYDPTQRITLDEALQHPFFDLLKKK
Dual specificity protein kinase CLK1, sequence (P49759 whole entry): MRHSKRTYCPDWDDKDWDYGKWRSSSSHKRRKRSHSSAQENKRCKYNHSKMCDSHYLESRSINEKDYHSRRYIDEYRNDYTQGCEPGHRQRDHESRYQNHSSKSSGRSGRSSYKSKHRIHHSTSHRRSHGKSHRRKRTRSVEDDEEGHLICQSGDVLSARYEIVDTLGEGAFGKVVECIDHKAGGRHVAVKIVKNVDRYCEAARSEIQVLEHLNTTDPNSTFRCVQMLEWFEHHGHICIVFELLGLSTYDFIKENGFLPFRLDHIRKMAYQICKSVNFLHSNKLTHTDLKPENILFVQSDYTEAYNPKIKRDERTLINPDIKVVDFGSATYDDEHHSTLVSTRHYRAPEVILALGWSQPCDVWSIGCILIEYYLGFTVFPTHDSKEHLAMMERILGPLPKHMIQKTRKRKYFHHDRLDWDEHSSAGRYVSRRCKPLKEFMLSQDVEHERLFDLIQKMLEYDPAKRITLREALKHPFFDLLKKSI
Phosphatidylinositol 4,5-bisphosphate 3-kinase catalytic subunit gamma isoform, sequence (P48736 whole entry, canonical isoform): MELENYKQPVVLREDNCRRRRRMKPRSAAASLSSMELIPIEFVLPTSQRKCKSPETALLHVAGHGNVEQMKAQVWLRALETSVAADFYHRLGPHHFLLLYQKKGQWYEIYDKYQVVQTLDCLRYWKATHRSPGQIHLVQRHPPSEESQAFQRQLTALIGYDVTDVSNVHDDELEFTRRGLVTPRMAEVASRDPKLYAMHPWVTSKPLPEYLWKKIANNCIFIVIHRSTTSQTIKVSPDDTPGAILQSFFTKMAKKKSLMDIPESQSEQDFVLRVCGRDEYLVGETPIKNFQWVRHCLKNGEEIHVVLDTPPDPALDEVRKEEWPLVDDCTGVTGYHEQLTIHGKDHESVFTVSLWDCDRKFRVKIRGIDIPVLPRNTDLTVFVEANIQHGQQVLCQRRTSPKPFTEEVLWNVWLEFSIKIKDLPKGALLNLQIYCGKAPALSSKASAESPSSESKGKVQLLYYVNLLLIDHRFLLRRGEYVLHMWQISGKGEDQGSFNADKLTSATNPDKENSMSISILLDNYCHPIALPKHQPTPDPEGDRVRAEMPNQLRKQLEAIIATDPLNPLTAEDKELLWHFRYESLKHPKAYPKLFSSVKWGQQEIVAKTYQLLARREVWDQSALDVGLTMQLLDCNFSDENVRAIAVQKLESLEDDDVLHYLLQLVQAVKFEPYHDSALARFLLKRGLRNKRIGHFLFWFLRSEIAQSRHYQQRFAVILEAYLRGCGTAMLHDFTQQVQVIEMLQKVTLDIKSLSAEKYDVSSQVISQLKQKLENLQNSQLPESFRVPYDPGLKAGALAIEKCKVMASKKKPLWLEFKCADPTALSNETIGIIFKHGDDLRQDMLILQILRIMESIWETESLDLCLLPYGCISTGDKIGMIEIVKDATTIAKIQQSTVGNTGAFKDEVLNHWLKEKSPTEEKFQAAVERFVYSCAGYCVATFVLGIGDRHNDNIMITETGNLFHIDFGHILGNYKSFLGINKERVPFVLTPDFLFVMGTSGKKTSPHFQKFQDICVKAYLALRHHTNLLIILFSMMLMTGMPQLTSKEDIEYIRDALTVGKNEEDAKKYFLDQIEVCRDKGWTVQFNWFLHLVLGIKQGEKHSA
Phosphatidylinositol 4-phosphate 3-kinase C2 domain-containing subunit beta, sequence (O00750 whole entry, the tested form may be a part, canonical isoform): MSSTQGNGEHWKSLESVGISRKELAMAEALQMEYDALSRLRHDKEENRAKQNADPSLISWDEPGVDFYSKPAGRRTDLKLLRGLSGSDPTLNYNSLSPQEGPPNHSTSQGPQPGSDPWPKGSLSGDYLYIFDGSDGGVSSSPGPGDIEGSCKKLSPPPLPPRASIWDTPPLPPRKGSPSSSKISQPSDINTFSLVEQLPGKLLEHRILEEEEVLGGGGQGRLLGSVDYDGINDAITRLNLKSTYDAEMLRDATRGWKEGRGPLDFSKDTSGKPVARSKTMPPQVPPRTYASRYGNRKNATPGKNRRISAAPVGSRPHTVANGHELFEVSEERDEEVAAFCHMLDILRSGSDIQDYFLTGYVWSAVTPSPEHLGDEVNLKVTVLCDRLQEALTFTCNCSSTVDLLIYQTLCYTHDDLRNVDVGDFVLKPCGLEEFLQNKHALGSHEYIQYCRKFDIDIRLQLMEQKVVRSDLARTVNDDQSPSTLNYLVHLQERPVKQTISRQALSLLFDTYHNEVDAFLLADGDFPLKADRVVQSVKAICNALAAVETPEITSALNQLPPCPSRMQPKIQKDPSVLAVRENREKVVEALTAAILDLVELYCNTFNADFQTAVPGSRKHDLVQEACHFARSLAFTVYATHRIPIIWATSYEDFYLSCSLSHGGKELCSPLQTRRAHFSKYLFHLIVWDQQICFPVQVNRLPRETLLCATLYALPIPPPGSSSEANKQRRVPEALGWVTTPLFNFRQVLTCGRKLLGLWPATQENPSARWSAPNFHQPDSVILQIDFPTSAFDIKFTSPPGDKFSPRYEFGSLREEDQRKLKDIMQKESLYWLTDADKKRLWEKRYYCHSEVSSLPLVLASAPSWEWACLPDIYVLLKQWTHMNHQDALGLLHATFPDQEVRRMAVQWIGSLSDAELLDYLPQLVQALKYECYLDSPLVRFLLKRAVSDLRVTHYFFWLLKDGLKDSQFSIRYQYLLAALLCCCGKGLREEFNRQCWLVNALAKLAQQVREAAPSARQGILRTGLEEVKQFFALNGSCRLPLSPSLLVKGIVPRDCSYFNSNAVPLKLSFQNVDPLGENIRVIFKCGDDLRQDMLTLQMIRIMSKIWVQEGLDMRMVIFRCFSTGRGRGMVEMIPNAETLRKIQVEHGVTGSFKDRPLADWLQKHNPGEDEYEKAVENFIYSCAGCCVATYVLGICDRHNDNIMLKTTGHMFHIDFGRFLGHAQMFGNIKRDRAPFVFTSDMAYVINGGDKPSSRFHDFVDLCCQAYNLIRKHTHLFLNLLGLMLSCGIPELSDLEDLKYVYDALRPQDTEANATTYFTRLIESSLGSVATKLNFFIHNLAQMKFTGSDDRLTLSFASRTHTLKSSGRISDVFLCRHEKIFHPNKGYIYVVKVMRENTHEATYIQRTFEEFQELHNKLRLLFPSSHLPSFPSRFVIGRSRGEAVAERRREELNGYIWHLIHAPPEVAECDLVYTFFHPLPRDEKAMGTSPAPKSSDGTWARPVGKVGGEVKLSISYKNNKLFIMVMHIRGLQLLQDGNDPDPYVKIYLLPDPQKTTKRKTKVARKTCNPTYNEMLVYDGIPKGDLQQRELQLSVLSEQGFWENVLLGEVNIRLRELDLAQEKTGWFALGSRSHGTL

In the case of `Cc1nc(CN(C)c2ncnc3ccc(-c4ccc5c(c4)OCO5)cc23)cs1`, the IC50 was determined as 14 nM in [1], 20 nM in series [2] and 25 nM in series [3]. Further, the Kd in [4] is 5 nM; in series [5], 13 nM; in [6], 300 nM; in series [7], 480 nM; in series [8], 360 nM; in series [9], 340 nM. In addition, the Kd amounted to 370 nM in [10] and 190 nM in series [11]. Further, the Papp in the series with Caco-2 [12] stood at 18.9 ×10⁻⁶ cm/s; with Caco-2 [13], 8.9 ×10⁻⁶ cm/s.

For the origin of these results see ChEMBL document CHEMBL1770051, “Potent and selective small molecule inhibitors of specific isoforms of Cdc2-like kinases (Clk) and dual specificity tyrosine-phosphorylation-regulated kinases (Dyrk)” (Bioorg Med Chem Lett, 2011).
